{"source": "patent US20100113473A1", "about": "“ARYL AMIDE COMPOUND AS AN ACETYL COENZYME A CARBOXYLASE INHIBITOR” (priority 2008, published 2010)", "key": {"[1]": {"molecular_target": "T1, Human ACC1 (amino acids 1603-2383) (Homo sapiens, UniProt Q13085)", "T1 construct": "Human ACC1 (amino acids 1603-2383); 6His (N); FLAG (N); TEV cleavage site (N); made in house; host or cells: Sf9 insect cells (baculovirus)", "experiment": "ThermoFluor measurement of compound binding to ACC1 CT domain", "details": "carboxyterminus (CT) domain, pH 7.0, read-out: ACC1 TF Kd", "procedure": "(§1) The 6His.FLAG.TEV Human ACC2 (amino acids 1685-2458) (Egea Biosciences, San Diego, Calif.) and 6His.FLAG. TEV. Human ACC1 (amino acids 1603-2383) (Egea Biosciences, San Diego, Calif.) genes were synthesized and subcloned into the pENTR11 vector. Transfection-grade DNA was purified using the QIAwell® Kit from Qiagen. The LR reaction was performed overnight and then transfected into Sf9 cells using a BaculoDirect® Baculovirus Expression System (Invitrogen). The P0 virus was collected 4 days post transfection and used for another round of virus amplification. The resulting P1 virus and cells were collected 3 days post-infection. […]\n(§2) On-column cleavage of the histidine tag was performed by injecting 96 ug of TEV S219V protease/mg (of ACC2 CT. The product was incubated at 4° C. for 20 hours. The cleaved ACC2 was eluted in buffer A and loaded directly onto a HiLoad® 16/60 Superdex 200 column (GE Healthcare), preequilibrated with 25 mM Tris Buffer (at pH 8.0, 200 mM NaCl, 5% Glycerol, 5 mM DTT). Fractions containing ACC2 CT, assayed by SDS-PAGE, were pooled. For cocrystallization, the compound was added in a 1:2 molar ratio of protein:compound and incubated overnight at 4° C. The complex was concentrated to a final protein concentration of 7 mg/mL using an 30 kDa cut-off Ultrafree® membrane (Millipore, Billerica, Mass.) and was then ready for crystallization. […]"}, "[2]": {"molecular_target": "T2, Human ACC2 (amino acids 1685-2458) (Homo sapiens, UniProt O00763)", "T2 construct": "Human ACC2 (amino acids 1685-2458); 6His (N, cleaved yes); FLAG (N, cleaved yes); TEV cleavage site (N, cleaved yes); made in house; host or cells: Sf9 insect cells (baculovirus)", "T2 sequence (O00763 1685-2458)": "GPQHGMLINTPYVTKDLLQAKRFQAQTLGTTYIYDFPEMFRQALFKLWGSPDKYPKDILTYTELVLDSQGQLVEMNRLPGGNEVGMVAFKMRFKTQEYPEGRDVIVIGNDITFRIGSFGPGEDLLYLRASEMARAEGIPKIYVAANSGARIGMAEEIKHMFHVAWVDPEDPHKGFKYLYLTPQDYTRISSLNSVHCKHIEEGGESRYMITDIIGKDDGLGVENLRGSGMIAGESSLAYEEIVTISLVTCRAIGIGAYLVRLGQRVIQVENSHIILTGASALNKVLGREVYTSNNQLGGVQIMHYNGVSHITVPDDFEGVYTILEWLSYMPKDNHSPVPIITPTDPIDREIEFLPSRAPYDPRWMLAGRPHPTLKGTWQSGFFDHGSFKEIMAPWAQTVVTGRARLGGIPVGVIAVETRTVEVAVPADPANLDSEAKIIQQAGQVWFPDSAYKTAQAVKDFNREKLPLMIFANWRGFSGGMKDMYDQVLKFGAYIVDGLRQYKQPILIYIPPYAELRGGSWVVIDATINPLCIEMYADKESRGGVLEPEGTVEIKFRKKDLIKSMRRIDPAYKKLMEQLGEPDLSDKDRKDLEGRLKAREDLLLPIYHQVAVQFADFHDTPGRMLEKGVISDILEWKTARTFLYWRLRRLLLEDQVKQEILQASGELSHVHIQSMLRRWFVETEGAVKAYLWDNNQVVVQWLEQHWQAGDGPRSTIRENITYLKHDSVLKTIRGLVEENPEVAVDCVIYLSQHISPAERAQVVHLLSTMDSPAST", "experiment": "ThermoFluor measurement of compound binding to ACC2 CT domain", "details": "carboxyterminus (CT) domain, pH 7.0, read-out: ACC2 TF Kd", "procedure": "as §1, §2"}, "[3]": {"test_system": "ApoB secretion from HepG2 cells", "experiment": "ApoB secretion from HepG2 cells", "assay_type": "cell-based", "details": "Homo sapiens, 24 hours, ApoB in medium by ELISA", "procedure": "HepG2 cells (American Type Culture Collection: Catalog No. #HB-8065) are maintained in Growth Media consisting of DMEM with 4.5 g/L glucose (Cellgro: Catalog No. #10-013-CV), supplemented with 10% fetal bovine serum (FBS) (Cellgro: Catalog No. #35-011-CV) and 100 U/mL each penicillin and streptomycin (Cellgro: Catalog No. #30-002-Cl). For the assay, cells are plated @ ˜10,000 cells/well in white, clear-bottom, 96-well plates (Costar: Catalog No. #3610) and incubated in a humidified 5% CO2 atmosphere at 37° C. The next day, Growth Media is replaced with RPMI 1640 without glucose (Cellgro: Catalog No. #10-043-CV), supplemented with 10% charcoal/dextran treated FBS (Hyclone: Catalog No. #SH30068.02) and 100 U/mL each penicillin and streptomycin (starvation media). The cells are maintained overnight in a humidified 5% CO2 atmosphere at 37° C. […] Twenty-four hours later, the growth medium is collected and assessed for ApoB content. […]\nThe samples are removed and the plate is washed again 3× with 200 μL PBST, then 100 μL of 1/10,000 HRP-conjugated, affinity-purified polyclonal sheep anti-human ApoB detection antibody (BioDesign International Product No. # K90086P) is added to each well and the plate is incubated for one hour at 37° C. […] The plate is read for one second in an Orion Microplate Luminometer®. […]"}}, "note": "pIC50, pKd: −log10 of the molar value."}
{"compound": "Cc1ccc2nc(-c3ccncc3)cc(C(=O)N3CCN(Cc4ccc5c(c4)OCCO5)CC3)c2c1", "note": "[Cpd 1, [4-(2,3-Dihydro-benzo[1,4]dioxin-6-ylmethyl)-piperazin-1-yl]-(6-methyl-2-pyridin-4-yl-quinolin-4-yl)methanone]", "values": [{"measurement": "pKd", "setting": "[1]", "result": 6.01}, {"measurement": "pKd", "setting": "[2]", "result": 6.40}, {"measurement": "pIC50", "setting": "[3]", "result": 5.10}]}
